Results from publication PMC9065794 (RSC Advances, 2019).

Legend:
[1] = molecular target: T1, equine serum butyrylcholinesterase (EqBuChE) (Equus caballus, UniProt P81908); assay: Anticholinesterase activity assay; assay type: biochemical, horse
[2] = molecular target: T2, electric eel acetylcholinesterase (EeAChE) (Electrophorus electricus, UniProt O42275); assay: Anticholinesterase activity assay; assay type: biochemical
[3] = molecular target: T2, electric eel acetylcholinesterase (EeAChE); assay: Enzymatic kinetic study; assay type: biochemical
[4] = molecular target: T1, equine serum butyrylcholinesterase (EqBuChE); assay: Enzymatic kinetic study; assay type: biochemical, horse

T1 sequence (P81908 whole entry): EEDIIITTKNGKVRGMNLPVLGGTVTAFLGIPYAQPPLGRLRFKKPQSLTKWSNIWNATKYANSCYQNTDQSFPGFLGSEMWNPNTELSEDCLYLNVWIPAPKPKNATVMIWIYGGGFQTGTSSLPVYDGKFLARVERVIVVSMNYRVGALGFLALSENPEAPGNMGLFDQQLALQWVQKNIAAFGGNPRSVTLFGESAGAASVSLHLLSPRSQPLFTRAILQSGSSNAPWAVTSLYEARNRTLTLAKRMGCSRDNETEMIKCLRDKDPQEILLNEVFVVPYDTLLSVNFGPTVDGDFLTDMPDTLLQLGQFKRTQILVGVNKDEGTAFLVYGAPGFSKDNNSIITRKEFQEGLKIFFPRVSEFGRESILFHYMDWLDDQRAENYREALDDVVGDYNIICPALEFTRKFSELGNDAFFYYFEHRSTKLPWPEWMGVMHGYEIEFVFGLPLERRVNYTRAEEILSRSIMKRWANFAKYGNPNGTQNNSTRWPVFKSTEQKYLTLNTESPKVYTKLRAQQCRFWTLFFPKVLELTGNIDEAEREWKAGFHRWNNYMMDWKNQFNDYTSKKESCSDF
T2 sequence (O42275 24-633): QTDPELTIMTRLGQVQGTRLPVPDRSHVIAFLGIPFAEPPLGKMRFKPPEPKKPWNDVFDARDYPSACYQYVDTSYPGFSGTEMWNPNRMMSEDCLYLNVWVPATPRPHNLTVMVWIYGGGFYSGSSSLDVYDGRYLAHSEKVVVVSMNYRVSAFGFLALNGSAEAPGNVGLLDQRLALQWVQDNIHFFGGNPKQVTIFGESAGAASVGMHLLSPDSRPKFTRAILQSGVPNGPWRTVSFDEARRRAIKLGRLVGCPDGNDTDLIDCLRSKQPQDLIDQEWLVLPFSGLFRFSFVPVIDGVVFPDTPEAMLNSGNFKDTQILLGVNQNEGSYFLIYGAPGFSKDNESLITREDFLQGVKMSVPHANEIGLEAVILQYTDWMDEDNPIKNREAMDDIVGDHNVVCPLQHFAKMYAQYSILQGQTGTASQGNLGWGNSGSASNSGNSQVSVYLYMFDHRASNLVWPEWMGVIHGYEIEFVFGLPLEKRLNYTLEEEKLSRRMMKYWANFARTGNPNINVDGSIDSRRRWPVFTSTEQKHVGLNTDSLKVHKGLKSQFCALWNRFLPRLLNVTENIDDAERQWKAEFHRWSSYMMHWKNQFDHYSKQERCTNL

SMILES	IC50 [1] [nM]	IC50 [2] [nM]	further results
c1ccc(CN2CCN(CCCCCNc3nc(-c4ccccc4)n(-c4ccccc4)n3)CC2)cc1 [Compound 13c, N-(5-(4-benzylpiperazin-1-yl)pentyl)-1,5-diphenyl-1H-1,2,4-triazol-3-amine]	1650 ± 59	11000 ± 251	–
c1ccc(CN2CCN(CCCCNc3nc(-c4ccccc4)n(-c4ccccc4)n3)CC2)cc1 [Compound 13b, N-(4-(4-benzylpiperazin-1-yl)butyl)-1,5-diphenyl-1H-1,2,4-triazol-3-amine]	1630 ± 111	3790 ± 61	–
c1ccc(CN2CCN(CCCCCCNc3nc(-c4ccccc4)n(-c4ccccc4)n3)CC2)cc1 [Compound 13d, N-(6-(4-benzylpiperazin-1-yl)hexyl)-1,5-diphenyl-1H-1,2,4-triazol-3-amine]	2210 ± 68	5220 ± 188	–
c1ccc(CN2CCN(CCCNc3nc(-c4ccccc4)n(-c4ccccc4)n3)CC2)cc1 [Compound 13a, N-(3-(4-benzylpiperazin-1-yl)propyl)-1,5-diphenyl-1H-1,2,4-triazol-3-amine]	–	–	type of inhibition, AChE [3]: mixed-type inhibition; type of inhibition, BuChE [4]: mixed-type inhibition
Nc1nc(-c2ccccc2)n(-c2ccccc2)n1 [Compound 6a, 1,5-Diphenyl-1,2,4-triazol-3-amine]	–	–	cholinesterase inhibition (BuChE), in words ([1]; at 30 μM): no significant cholinesterase inhibition; inhibition at 30 µM ([1]; read-out: BuChE inhibition (class NA in IC50 column)): < 20%; cholinesterase inhibition (AChE), in words ([2]; at 30 μM): no significant cholinesterase inhibition; inhibition at 30 µM ([2]; read-out: AChE inhibition (class NA in IC50 column)): < 20%
